Laboratory results published in paper PMC8179208, “Unravelling the mechanisms controlling heme supply and demand” (Proceedings of the National Academy of Sciences of the …, 2021).

Target: T1, mAPXmEGFP (Glycine max, UniProt Q43758, K14D/E112K)
T1 construct: gene apx1; monomeric K14D/E112K APX fused to mEGFP reporter; N-terminal His tag, pLEICS-45; pea, Pisum sativum, possible
T1 sequence (Q43758 1-250 K14D/E112K): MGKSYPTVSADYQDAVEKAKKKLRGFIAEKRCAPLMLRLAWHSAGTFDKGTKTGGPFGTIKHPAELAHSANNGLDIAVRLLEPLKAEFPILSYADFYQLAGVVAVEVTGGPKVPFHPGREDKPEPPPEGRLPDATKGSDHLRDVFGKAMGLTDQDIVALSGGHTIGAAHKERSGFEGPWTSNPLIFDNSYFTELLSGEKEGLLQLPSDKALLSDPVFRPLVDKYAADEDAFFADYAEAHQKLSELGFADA
Test: time-correlated single-photon counting fluorescence lifetime titration of apo protein, […] binding model
Conditions: 37 °C, 10 mM potassium phosphate pH 7, 1 uM protein

`C=CC1=C(C)C2=Cc3c(C=C)c(C)c4[n]3[Fe]([Cl])[n]3c(c(C)c(CCC(=O)O)c3=CC3=NC(=C4)C(C)=C3CCC(=O)O)=CC1=N2` [heme] was tested. Which Kd did it give?
Its Kd is 22 nM.
